Format in all cases: in vivo
The test system of data set [1] is control mice. Put plainly: Acute (24 hour) tolerance, tail flick, control mice. The following applies: controls. The procedure:
Acute tolerance utilizing the radiant tail flick assay was measured by comparing the ED80-90 dose on day 1 to the same dose measured 24 hours later on the same mouse. For the LPS pretreated mice, no additional LPS was given to the mice for the acute tolerance test. […] However, the effect was less robust 72 hours after the initial LPS injection. Thus confirming that the acute tolerance test was accurate for the LPS pretreated mice.

In data set [2] the test system is control mice. Kind of data set: Radiant tail flick antinociception, control (not pretreated) mice. The procedure:
Compounds were dissolved in 10% DMSO and then diluted to less than 1% DMSO in the test solutions. […] Compounds were administered in a 5-μl volume in conscious mice, either i.c.v. (Haley T J & McCormick W G, Br J Pharmacol Chemother, 1957, 12(1), 12-15) or i.t. (Hylden J L K & Wilcox G L, Eur. J. Pharmacol., 1980, 67(2-3), 313-316). Peak times were determined by comparing the percent maximal possible effect (% MPE) at 5, 10, 20 and 60 minutes after injection.
The tail flick assay is used first to test for antinociception as described by D'Amour and Smith (D'AMOUR FE & SMITH DL (1941) J. Pharmacol. Exp. Ther. 72(1):74-79) and modified by Dewey et al. (Dewey W L, Harris L S, Howes J F, & Nuite JA (1970) J. Pharmacol. Exp. Ther. 175(2):435-442). For the measurement of the tail-flick latency, mice are wrapped in a light cloth and held gently in one hand with the tail positioned in the apparatus (Tail Flick Analgesia Meter, Columbus Instruments, Columbus, Ohio) for radiant heat stimulus. The tail-flick response is elicited by applying radiant heat to the dorsal side of the tail. The intensity of the heat is set so that the mouse flicks its tail within 2 to 3 seconds. The test latency is measured before drug treatment (control) and again after the drug treatment (test) at the peak time of the compound; a 10 second maximum cut-off time is used to prevent damage to the tail. Antinociception is quantified according to the Harris L S & Pierson A K, J. Pharmacol. Exp. Ther., 1964, 143(2):141-148, as the percent maximal possible effect (% MPE), which is calculated as: % MPE=(Test−Control/10−Control)×100.
At least three groups of four to ten mice are used for each dose response curve. ED50 values with 95% confidence intervals (C.I.) are computed with GraphPad Prism 4 by using nonlinear regression methods.

Data set [3] relates to live mice. Kind of data set: Respiratory depression (Mouse Ox O2 saturation). The following applies: for % of mice with O2 Saturation less than 90%: i.t., LPS. The procedure:
Respiratory depression was measured in live mice using the Mouse Ox (small animal Oximeter from STARR Life Sciences Corp, Oakmont, Pa.). CollarClip™—(Un-Anesthetized Neck Sensor) for mice was used as the site for measuring the data. Day one of each experiment involved training the animals using a disposable CollarClip™. The collar was left on for approximately one hour. […] Mice were monitored for a 60-minute period, with measurements 10-20-30 and 60 minutes.
Respiratory depression was measured in live mice using the Mouse Ox (small animal Oximeter from STARR Life Sciences Corp, Oakmont, Pa.). CollarClip™ (Un-Anesthetized Neck Sensor) for mice was used as the site for measuring the data.
Day one of each experiment involved training the animals using a disposable CollarClip™. The collar was left on for approximately one hour.
Mice were monitored for a 60-minute period, with measurements 10-20-30 and 60 minutes.

The values that follow come from patent publication US9981043B2, “Analgesic conjugates” (priority 2013, dated 2018).

As for `Cc1cccc(C#Cc2cccc(OCCNC(=O)COCC(=O)NCCCCCNC(=O)COCC(=O)N[C@H]3CC[C@@]4(O)C5Cc6ccc(O)c7c6[C@@]4(CCN5C)[C@H]3O7)c2)n1` [Compound 4c, N-((4aS,7S,7aR,12bS)-4a,9-dihydroxy-3-methyl-2,3,4,4a,5,6,7,7a-octahydro-1H-4,12-methanobenzofuro[3,2-e]isoquinolin-7-yl)-2-((1-(3-((6-methylpyridin-2-yl)ethynyl)phenoxy)-4,8,16-trioxo-6-oxa-3,9,15-triazaheptadecan-17-yl)oxy)acetamide], the Tolerance result in data set [1] (i.c.v.) and in data set [1] (i.t.) was “No Tolerance” each time. Further, in data set [2] (control mice, i.c.v.), the agonist character entry is listed as “partial agonist”. The “% MPE” value in data set [2] (controls, i.c.v., 250 pmol/mouse) was 71 ± 10% MPE. Besides, the “ED50 (CI) i.t.” value in data set [2] (controls, i.t., tail flick) is reported as 38.70 pmol/mouse. Further, in data set [3] (compared with morphine), the safety margin result is “greater safety margin than morphine”. Also, the therapeutic index entry in data set [3] (estimated) is reported as “greater than a million”. Moreover, the “% of mice with O2 Saturation less than 90%” value came to 0% in data set [3] (dose 50,000 times the ED90) and 100% in data set [3] (dose 100,000 times the ED90). Further, in data set [3] (mouse, in vivo), the respiratory depression result is listed as “no tolerance or respiratory depression”.
